# Laboratory results from patent US20260242419A1, “A CYCLIC PEPTIDE FOR TRAPPING INTERLEUKIN-1 BETA” (Merck Sharp & Dohme LLC, priority 2023, published 2026).
# pIC50: −log10 of the molar value. Starred links: 1 amine or outer side, 2 acyl side, 3 side chain; linkers in the order of their positions; H or OH if unused. Non-standard residues stand in square brackets, D forms with d. Residues, ends and D or L forms follow the SMILES beside them. Phe(4-(5-CO2H-2-pyrimidyl)) = N[C@@H](Cc1ccc(-c2ncc(C(=O)O)cn2)cc1)C(=O)O; Phe(4-(4-Ac-piperazinyl)) = CC(=O)N1CCN(c2ccc(C[C@H](N)C(=O)O)cc2)CC1; dPro(4R-(4-pyridylmethyl)) = O=C(O)[C@H]1C[C@@H](Cc2ccncc2)CN1; Ala(piperidin-4-yl) = O=C([C@H](CC1CCN([*:3])CC1)N[*:1])[*:2]; Trp(βS-Me,4-F) = C[C@@H](c1c[nH]c2cccc(F)c12)[C@H](N)C(=O)O; Bip(4'-COOH) = N[C@@H](Cc1ccc(-c2ccc(C(=O)O)cc2)cc1)C(=O)O; Ala(1-bicyclo(1.1.1)pentyl) = N[C@@H](CC12CC(C1)C2)C(=O)O; dPro(4R-Bzl(4-F)) = O=C(O)[C@H]1C[C@@H](Cc2ccc(F)cc2)CN1; Ala(morpholin-4-yl) = N[C@@H](CN1CCOCC1)C(=O)O; Ala(piperazin-1-yl) = N[C@@H](CN1CCNCC1)C(=O)O; Ala(pyrimidin-5-yl) = N[C@@H](Cc1cncnc1)C(=O)O; Phe(4-COOH) = N[C@@H](Cc1ccc(C(=O)O)cc1)C(=O)O; Pro(cis-4-F) = O=C(O)[C@@H]1C[C@H](F)CN1; cisHyp = O=C(O)[C@@H]1C[C@H](O)CN1; d(αMeD) = C[C@@](N)(CC(=O)O)C(=O)O; 4Pal = N[C@@H](Cc1ccncc1)C(=O)O; aThr = C[C@H](O)[C@H](N)C(=O)O; αMeD = C[C@](N)(CC(=O)O)C(=O)O; d(αMeS) = C[C@@](N)(CO)C(=O)O; αMeK = C[C@](N)(CCCCN)C(=O)O; Dab = NCC[C@H](N)C(=O)O; Aib = CC(C)(N)C(=O)O
# Target: T1, IL-1β (Homo sapiens, UniProt P01584)
# T1 construct: purchased BioLegend 579404
# T1 sequence (P01584 117-269): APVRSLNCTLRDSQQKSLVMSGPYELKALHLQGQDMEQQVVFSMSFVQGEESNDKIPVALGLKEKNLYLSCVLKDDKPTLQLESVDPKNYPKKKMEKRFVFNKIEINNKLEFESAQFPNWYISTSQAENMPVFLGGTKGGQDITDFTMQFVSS
# Assay: IL-6 assay in MRC5 cells: inhibition of IL-1β induced IL-6 secretion (AlphaLISA)
# Format: cell-based
# Settings: inhibition of IL-1β induced IL-6 secretion in MRC5 cells; read-out: MRC5 IC50
# In short: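 Compound was pre-incubated 1 h at ambient temperature with recombinant human IL-1β at 2λ EC80 before adding human lung fibroblast MRC5 cells (3000/well) in EMEM with 0.025% BSA. After overnight culture at 37 °C, 5% CO2, secreted IL-6 in conditioned medium was measured by AlphaLISA; IC50 from 4-parameter logistic fits.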
row,Compound,pIC50
1,"C[C@@H](c1c[nH]c2cccc(F)c12)[C@@H]1NC(=O)[C@@H]2C[C@H](F)CN2C(=O)CNC(=O)[C@H](Cc2ccc(C(=O)O)cc2)NC(=O)[C@H](CC23CC(C2)C3)NC(=O)[C@H](Cc2ccc(-c3ccc(C(=O)O)cc3)cc2)NC(=O)[C@H]2C[C@@H](Cc3ccc(F)cc3)CN2C(=O)CNC(=O)[C@H](CCN)NC(=O)[C@H](CCC(N)=O)NC(=O)[C@H](CN2CCOCC2)NC(=O)[C@](C)(CCCCN)NC(=O)[C@H](Cc2c[nH]c3ccccc23)NC(=O)[C@H](CO)NC(=O)C(C)(C)NC1=O [Example 174] (cyclo([Bip(4'-COOH)][Ala(1-bicyclo(1.1.1)pentyl)][Phe(4-COOH)]G[Pro(cis-4-F)][Trp(βS-Me,4-F)][Aib]SW[αMeK][Ala(morpholin-4-yl)]Q[Dab]G[dPro(4R-Bzl(4-F))]))",10.60
2,"C[C@@H](c1c[nH]c2cccc(F)c12)[C@@H]1NC(=O)[C@@H]2C[C@H](F)CN2C(=O)CNC(=O)[C@H](Cc2ccc(C(=O)O)cc2)NC(=O)[C@H](CC23CC(C2)C3)NC(=O)[C@H](Cc2ccc(-c3ccc(C(=O)O)cc3)cc2)NC(=O)[C@H]2C[C@@H](Cc3ccc(F)cc3)CN2C(=O)CNC(=O)[C@H](CO)NC(=O)[C@H](CCC(N)=O)NC(=O)[C@H](CN2CCNCC2)NC(=O)[C@](C)(CCCCN)NC(=O)[C@H](Cc2c[nH]c3ccccc23)NC(=O)[C@H](CO)NC(=O)C(C)(C)NC1=O [Example 175] (cyclo([Bip(4'-COOH)][Ala(1-bicyclo(1.1.1)pentyl)][Phe(4-COOH)]G[Pro(cis-4-F)][Trp(βS-Me,4-F)][Aib]SW[αMeK][Ala(piperazin-1-yl)]QSG[dPro(4R-Bzl(4-F))]))",10.43
3,"C[C@@H](c1c[nH]c2cccc(F)c12)[C@@H]1NC(=O)[C@@H]2C[C@H](F)CN2C(=O)CNC(=O)[C@H](Cc2ccc(C(=O)O)cc2)NC(=O)[C@H](CC23CC(C2)C3)NC(=O)[C@H](Cc2ccc(-c3ccc(C(=O)O)cc3)cc2)NC(=O)[C@H]2C[C@@H](Cc3ccncc3)CN2C(=O)CNC(=O)[C@H](CO)NC(=O)[C@H](CCC(N)=O)NC(=O)[C@H](CC2CCNCC2)NC(=O)C(C)(C)NC(=O)[C@H](Cc2c[nH]c3ccccc23)NC(=O)[C@H](CCC(=O)O)NC(=O)C(C)(C)NC1=O [Example 176] (cyclo([Bip(4'-COOH)][Ala(1-bicyclo(1.1.1)pentyl)][Phe(4-COOH)]G[Pro(cis-4-F)][Trp(βS-Me,4-F)][Aib]EW[Aib][Ala(piperidin-4-yl)]QSG[dPro(4R-(4-pyridylmethyl))]))",10.44
4,"C[C@@H](c1c[nH]c2cccc(F)c12)[C@@H]1NC(=O)[C@@H]2C[C@H](F)CN2C(=O)CNC(=O)[C@H](Cc2ccc(C(=O)O)cc2)NC(=O)[C@H](CC23CC(C2)C3)NC(=O)[C@H](Cc2ccc(-c3ccc(C(=O)O)cc3)cc2)NC(=O)[C@H]2C[C@@H](Cc3ccncc3)CN2C(=O)CNC(=O)[C@H](CO)NC(=O)[C@H](CCC(N)=O)NC(=O)[C@H](CN2CCOCC2)NC(=O)[C@@](C)(CO)NC(=O)[C@H](Cc2c[nH]c3ccccc23)NC(=O)[C@H](CCC(=O)O)NC(=O)C(C)(C)NC1=O [Example 177] (cyclo([Bip(4'-COOH)][Ala(1-bicyclo(1.1.1)pentyl)][Phe(4-COOH)]G[Pro(cis-4-F)][Trp(βS-Me,4-F)][Aib]EW[d(αMeS)][Ala(morpholin-4-yl)]QSG[dPro(4R-(4-pyridylmethyl))]))",10.51
5,"C[C@@H](c1c[nH]c2cccc(F)c12)[C@@H]1NC(=O)[C@@H]2C[C@H](F)CN2C(=O)CNC(=O)[C@H](Cc2ccc(C(=O)O)cc2)NC(=O)[C@H](CC23CC(C2)C3)NC(=O)[C@H](Cc2ccc(-c3ccc(C(=O)O)cc3)cc2)NC(=O)[C@H]2C[C@@H](Cc3ccncc3)CN2C(=O)CNC(=O)[C@H](CO)NC(=O)[C@H](CCC(N)=O)NC(=O)[C@H](CC2CCNCC2)NC(=O)[C@@](C)(CO)NC(=O)[C@H](Cc2c[nH]c3ccccc23)NC(=O)[C@H](CCC(=O)O)NC(=O)C(C)(C)NC1=O [Example 178] (cyclo([Bip(4'-COOH)][Ala(1-bicyclo(1.1.1)pentyl)][Phe(4-COOH)]G[Pro(cis-4-F)][Trp(βS-Me,4-F)][Aib]EW[d(αMeS)][Ala(piperidin-4-yl)]QSG[dPro(4R-(4-pyridylmethyl))]))",10.39
6,"C[C@@H](c1c[nH]c2cccc(F)c12)[C@@H]1NC(=O)[C@@H]2C[C@H](F)CN2C(=O)CNC(=O)[C@H](Cc2ccc(C(=O)O)cc2)NC(=O)[C@H](CC23CC(C2)C3)NC(=O)[C@H](Cc2ccc(-c3ccc(C(=O)O)cc3)cc2)NC(=O)[C@H]2C[C@@H](Cc3ccncc3)CN2C(=O)CNC(=O)[C@H](CO)NC(=O)[C@H](CCC(N)=O)NC(=O)[C@H](CN2CCOCC2)NC(=O)C(C)(C)NC(=O)[C@H](Cc2c[nH]c3ccccc23)NC(=O)[C@H](CO)NC(=O)C(C)(C)NC1=O [Example 179] (cyclo([Bip(4'-COOH)][Ala(1-bicyclo(1.1.1)pentyl)][Phe(4-COOH)]G[Pro(cis-4-F)][Trp(βS-Me,4-F)][Aib]SW[Aib][Ala(morpholin-4-yl)]QSG[dPro(4R-(4-pyridylmethyl))]))",10.54
7,"C[C@@H](c1c[nH]c2cccc(F)c12)[C@@H]1NC(=O)[C@@H]2C[C@H](F)CN2C(=O)CNC(=O)[C@H](Cc2ccc(C(=O)O)cc2)NC(=O)[C@H](CC23CC(C2)C3)NC(=O)[C@H](Cc2ccc(-c3ccc(C(=O)O)cc3)cc2)NC(=O)[C@H]2C[C@@H](Cc3ccncc3)CN2C(=O)CNC(=O)[C@H](CO)NC(=O)[C@H](CCC(N)=O)NC(=O)[C@H](CC2CCNCC2)NC(=O)C(C)(C)NC(=O)[C@H](Cc2c[nH]c3ccccc23)NC(=O)[C@H](CO)NC(=O)C(C)(C)NC1=O [Example 180] (cyclo([Bip(4'-COOH)][Ala(1-bicyclo(1.1.1)pentyl)][Phe(4-COOH)]G[Pro(cis-4-F)][Trp(βS-Me,4-F)][Aib]SW[Aib][Ala(piperidin-4-yl)]QSG[dPro(4R-(4-pyridylmethyl))]))",10.57
8,"C[C@@H](c1c[nH]c2cccc(F)c12)[C@@H]1NC(=O)[C@@H]2C[C@H](F)CN2C(=O)CNC(=O)[C@H](Cc2ccc(C(=O)O)cc2)NC(=O)[C@H](CC23CC(C2)C3)NC(=O)[C@H](Cc2ccc(-c3ccc(C(=O)O)cc3)cc2)NC(=O)[C@H]2C[C@@H](Cc3ccncc3)CN2C(=O)CNC(=O)[C@H](CO)NC(=O)[C@H](CCC(N)=O)NC(=O)[C@H](CC2CCNCC2)NC(=O)[C@@](C)(CO)NC(=O)[C@H](Cc2c[nH]c3ccccc23)NC(=O)[C@H](CO)NC(=O)C(C)(C)NC1=O [Example 181] (cyclo([Bip(4'-COOH)][Ala(1-bicyclo(1.1.1)pentyl)][Phe(4-COOH)]G[Pro(cis-4-F)][Trp(βS-Me,4-F)][Aib]SW[d(αMeS)][Ala(piperidin-4-yl)]QSG[dPro(4R-(4-pyridylmethyl))]))",10.68
9,"C[C@H](O)[C@@H]1NC(=O)C(C)(C)NC(=O)[C@H]([C@@H](C)c2c[nH]c3cccc(F)c23)NC(=O)[C@@H]2C[C@H](O)CN2C(=O)CNC(=O)[C@H](Cc2ccc(C(=O)O)cc2)NC(=O)[C@H](CC23CC(C2)C3)NC(=O)[C@H](Cc2ccc(-c3ccc(C(=O)O)cc3)cc2)NC(=O)[C@H]2C[C@@H](Cc3ccncc3)CN2C(=O)CNC(=O)[C@H](CCN)NC(=O)[C@H](CCC(N)=O)NC(=O)[C@H](Cc2cncnc2)NC(=O)[C@@](C)(CC(=O)O)NC(=O)[C@H](Cc2c[nH]c3ccccc23)NC1=O [Example 182] (cyclo([Bip(4'-COOH)][Ala(1-bicyclo(1.1.1)pentyl)][Phe(4-COOH)]G[cisHyp][Trp(βS-Me,4-F)][Aib][aThr]W[d(αMeD)][Ala(pyrimidin-5-yl)]Q[Dab]G[dPro(4R-(4-pyridylmethyl))]))",10.31
10,"CC(=O)N1CCN(c2ccc(C[C@@H]3NC(=O)[C@H]4C[C@@H](Cc5ccc(F)cc5)CN4C(=O)CNC(=O)[C@H](CCN)NC(=O)[C@H](CCC(N)=O)NC(=O)[C@H](Cc4cncnc4)NC(=O)C(C)(C)NC(=O)[C@H](Cc4c[nH]c5ccccc45)NC(=O)[C@H](CO)NC(=O)C(C)(C)NC(=O)[C@H]([C@@H](C)c4c[nH]c5cccc(F)c45)NC(=O)[C@@H]4C[C@H](F)CN4C(=O)CNC(=O)[C@H](Cc4ccc(C(=O)O)cc4)NC(=O)[C@H](Cc4ccncc4)NC3=O)cc2)CC1 [Example 183] (cyclo([Phe(4-(4-Ac-piperazinyl))][4Pal][Phe(4-COOH)]G[Pro(cis-4-F)][Trp(βS-Me,4-F)][Aib]SW[Aib][Ala(pyrimidin-5-yl)]Q[Dab]G[dPro(4R-Bzl(4-F))]))",10.60
11,"CC(=O)N1CCN(c2ccc(C[C@@H]3NC(=O)[C@H]4C[C@@H](Cc5ccc(F)cc5)CN4C(=O)CNC(=O)[C@H](CCN)NC(=O)[C@H](CCC(N)=O)NC(=O)[C@H](Cc4cncnc4)NC(=O)[C@](C)(CC(=O)O)NC(=O)[C@H](Cc4c[nH]c5ccccc45)NC(=O)[C@H](CO)NC(=O)C(C)(C)NC(=O)[C@H]([C@@H](C)c4c[nH]c5cccc(F)c45)NC(=O)[C@@H]4C[C@H](F)CN4C(=O)CNC(=O)[C@H](Cc4ccc(C(=O)O)cc4)NC(=O)[C@H](Cc4ccncc4)NC3=O)cc2)CC1 [Example 184] (cyclo([Phe(4-(4-Ac-piperazinyl))][4Pal][Phe(4-COOH)]G[Pro(cis-4-F)][Trp(βS-Me,4-F)][Aib]SW[αMeD][Ala(pyrimidin-5-yl)]Q[Dab]G[dPro(4R-Bzl(4-F))]))",10.85
12,"C[C@@H](c1c[nH]c2cccc(F)c12)[C@@H]1NC(=O)[C@@H]2C[C@H](O)CN2C(=O)CNC(=O)[C@H](Cc2ccc(C(=O)O)cc2)NC(=O)[C@H](CC23CC(C2)C3)NC(=O)[C@H](Cc2ccc(-c3ncc(C(=O)O)cn3)cc2)NC(=O)[C@H]2C[C@@H](Cc3ccncc3)CN2C(=O)CNC(=O)[C@H](CCN)NC(=O)[C@H](CCC(N)=O)NC(=O)[C@H](Cc2cncnc2)NC(=O)C(C)(C)NC(=O)[C@H](Cc2c[nH]c3ccccc23)NC(=O)[C@H](CO)NC(=O)C(C)(C)NC1=O [Example 185] (cyclo([Phe(4-(5-CO2H-2-pyrimidyl))][Ala(1-bicyclo(1.1.1)pentyl)][Phe(4-COOH)]G[cisHyp][Trp(βS-Me,4-F)][Aib]SW[Aib][Ala(pyrimidin-5-yl)]Q[Dab]G[dPro(4R-(4-pyridylmethyl))]))",10.37
